The values that follow are results of earlier work, collected in patent US20250135014A1, “TARGETED LINEAR CONJUGATES COMPRISING POLYETHYLENEIMINE AND POLYETHYLENE GLYCOL AND POLYPLEXES COMPRISING THE SAME” (TARGIMMUNE THERAPEUTICS AG, priority 2021, published 2025).

In this data set the target is EGFR (Homo sapiens, UniProt P00533). Particulars: Ruoslahti et al. 2012; Li et al. 2005.

Turning to YHWYGYTPQNVI [GE-11], the Kd is 22 nM.
